Patent US6706880B2 (Research Triangle Institute, priority 1990, dated 2004)
Where a name gives a salt, the structure may show the parent alone. Read-outs that look alike come from different tables or passages of the source.

Key:
dopamine transporter [1] = biological target: dopamine transporter (UniProt P23977); type: binding
Source text: (§1) Illustrative in vitro assays for binding are described in Boja et al Ann. NY Acad. Sci. 654:282-291 (1992), which is incorporated herein by reference in its entirety. […] Alternatively, the compounds may be analyzed by their ability to inhibit reuptake of a labelled neurotransmitter in a sample, in particular, in synaptosomes.

dopamine transporter [2] = type: binding; conditions: ratio of IC50 values, Table II
Source text: as §1

serotonin transporter = biological target: T1, serotonin transporter (Rattus norvegicus, UniProt P31652); assay: Inhibition of [3H]paroxetine radioligand binding at the serotonin transporter
T1 construct: from tissue
Source text: as §1

[3] = biological target: norepinephrine transporter (UniProt Q9WTR4); assay: Inhibition of [3H]nisoxetine radioligand binding at the norepinephrine transporter
Source text: as §1

[4] = read-out: IC50 DA [3H]-WIN 35,428, Table II
[5] = IC50 5-HT [3H]-paroxatine, Table II
[6] = read-out: IC50 NE [3H]-nisoxetine, Table II
[7] = read-out: DA IC50 for inhibition of radioligand binding, DA=[3H]WIN 35,428
[8] = 5-HT=[3H] paroxetine, read-out: 5-HT IC50 for inhibition of radioligand binding
[9] = Table II, read-out: IC50 5-HT [3H]-paroxatine (converted)
[10] = read-out: NEN IC50 for inhibition of radioligand binding, NEN=[3H] nisoxetine
[11] = 5-HT IC50 for inhibition of radioligand binding, 5-HT=[3H] paroxetine

T1 sequence (P31652 whole entry): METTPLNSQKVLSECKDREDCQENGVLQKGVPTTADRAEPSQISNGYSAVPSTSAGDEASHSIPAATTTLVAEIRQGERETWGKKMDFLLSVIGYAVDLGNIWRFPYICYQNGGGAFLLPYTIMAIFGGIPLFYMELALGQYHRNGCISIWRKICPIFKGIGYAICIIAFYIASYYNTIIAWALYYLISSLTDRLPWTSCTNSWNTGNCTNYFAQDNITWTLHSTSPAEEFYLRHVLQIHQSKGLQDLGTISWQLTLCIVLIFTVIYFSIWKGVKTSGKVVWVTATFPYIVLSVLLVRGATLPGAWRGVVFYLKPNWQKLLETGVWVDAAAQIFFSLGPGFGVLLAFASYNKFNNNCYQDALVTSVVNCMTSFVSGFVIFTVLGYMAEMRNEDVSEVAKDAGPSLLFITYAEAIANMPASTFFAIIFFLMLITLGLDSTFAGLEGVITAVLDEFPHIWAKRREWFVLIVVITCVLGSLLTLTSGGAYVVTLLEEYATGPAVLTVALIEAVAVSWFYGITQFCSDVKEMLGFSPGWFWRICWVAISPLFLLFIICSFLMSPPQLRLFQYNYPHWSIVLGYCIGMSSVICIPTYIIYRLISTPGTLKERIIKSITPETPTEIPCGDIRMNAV

Structure (SMILES)	IC50 (dopamine transporter [1]; [4])	5-HT/DA Ratio (dopamine transporter [2])	NE/DA Ratio (dopamine transporter [2])	IC50 (serotonin transporter; [5])	IC50 [3, 6]	IC50 (dopamine transporter [1]; [7])	IC50 (serotonin transporter; [8])	IC50 (serotonin transporter; [9])	IC50 [3, 10]	IC50 (serotonin transporter; [11])
Cc1ccc([C@H]2C[C@@H]3CC[C@H]([C@H]2c2nn[nH]n2)N3C)cc1 [RTI-157, 3β-(4-Methylphenyl)-tropane-2β-tetrazole Hydrochloride]	1560 nM	28	21	43600 nM	32500 nM					
Cc1ccc(C2CC3CCC(C2c2cc(C)no2)N3C)cc1.Cl (stereo not drawn) [RTI-4229-171, 3β-(4-Methylphenyl)-2P-(3-methylisoxazol-5-yl)tropane Hydrochloride]	0.93 nM	4105	273		254 nM	0.93 nM	3820 nM	3820 nM	254 nM	
Cc1ccc([C@H]2C[C@@H]3CC[C@H]([C@H]2c2cc(-c4ccccc4)no2)N3C)cc1 [RTI-4229-176, 3β-(4-Methylphenyl)-2β-(3-phenylisoxazol-5-yl)tropane Hydrochloride]	1.58 nM	3234	251	5110 nM	398 nM	1.58 nM			398 nM	5110 nM
CN1[C@H]2CC[C@@H]1[C@@H](c1cc(-c3ccccc3)no1)[C@@H](c1ccc(Cl)cc1)C2 [RTI-4229-177, 3β-(4-Chlorophenyl)-2β-(3-phenylisoxazol-5-yl)tropane Hydrochloride]	1.28 ± 0.18 nM	1889	393	2420 ± 136 nM	504 ± 29 nM	1.28 nM			504 nM	2420 nM
Cc1ccc([C@H]2C[C@@H]3CC[C@H]([C@H]2c2ncc(-c4ccccc4)o2)N3C)cc1 [RTI-4229-178, 3β-(4-Methylphenyl)-2β-(5-phenyl-oxazol-2-yl)-tropane Tartrate]	35.4 nM	48	19	1700 nM	677 nM	35.4 nM			677 nM	1700 nM
Cc1cc([C@H]2[C@@H](c3ccc(I)cc3)C[C@@H]3CC[C@H]2N3C)on1 [RTI-4229-180, 3β-(4-Iodophenyl)-2β-(3-methylisoxazol-5-yl)tropane Hydrochloride]	0.73 nM		93	36.4 nM	67.9 nM				67.9 nM	
CN1[C@H]2CC[C@@H]1[C@@H](c1cc(-c3ccccc3)no1)[C@@H](c1ccc(I)cc1)C2 [RTI-4229-181, 3β-(4-Iodophenyl)-2β-(3-phenylisoxazol-5-yl)tropane Hydrochloride]	2.57 nM	39	337	100 nM	868 nM	2.57 nM			868 nM	100 nM
CN1[C@H]2CC[C@@H]1[C@@H](c1nnc(-c3ccccc3)o1)[C@@H](c1ccc(Cl)cc1)C2 [RTI-4229-188, 3β-(4-Chlorophenyl)-2β-(5-phenyl-1,3,4-oxadiazol-2-yl)-tropane Hydrochloride]	12.6 ± 1.03 nM	262	73	3300 ± 196 nM	929 ± 88 nM	12.6 nM	3300 nM		929 nM	
CN1[C@H]2CC[C@@H]1[C@@H](c1ncc(-c3ccccc3)o1)[C@@H](c1ccc(Cl)cc1)C2 [RTI-4229-189, 3β-(4-Chlorophenyl)-2β-(5-phenyl-oxazol-2-yl)-tropane Tartrate]	19.7 ± 1.98 nM	57	25		496 ± 42 nM	19.7 nM	1120 nM	1120 ± 107 nM	496 nM	
Cc1ccc([C@H]2C[C@@H]3CC[C@H]([C@H]2c2nnc(C)o2)N3C)cc1 [RTI-4229-194, 3β-(4-Methylphenyl)-2β-(5-methyl-1,3,4-oxadiazol-2-yl)-tropane Hydrochloride]	4.45 ± 0.12 nM	1098	57	4880 ± 155 nM	253 ± 19 nM	4.45 nM			253 nM	4880 nM
Cc1ccc([C@H]2C[C@@H]3CC[C@H]([C@H]2c2nnc(-c4ccccc4)o2)N3C)cc1 [RTI-4229-195, 3β-(4-Methylphenyl)-2β-(5-phenyl-1,3,4-oxadiazol-2-yl)-tropane Hydrochloride]	47.5 nM	491	28	23300 nM	1310 nM	47.5 nM			1310 nM	22300 nM
Cc1ccc([C@H]2C[C@@H]3CC[C@H]([C@H]2c2nnc(-c4ccccc4)s2)N3C)cc1 [RTI-4229-199, 3β-(4-Methylphenyl)-2β-(5-phenyl-1,3,4-thiadiazol-2-yl)-tropane Hydrochloride]	35.9 nM	1434	677	51500 nM	24300 nM	35.9 nM				51500 nM
CN1C2CCC1C(c1nnc(-c3ccccc3)s1)C(c1ccc(Cl)cc1)C2 (stereo not drawn) [RTI-4229-200, 3β-(4-Chlorophenyl)-2β-(S-phenyl-1,3,4-thiadiazol-2-yl)-tropane Hydrochloride]	15.3 ± 2.43 nM	1203	271	18400 nM	4140 ± 466 nM	15.3 nM			4140 nM	18400 nM
CCCc1ccc(C2CC3CCC(C2C(=O)OC)N3C)cc1 (stereo not shown) [RTI-4229-282]						68.5 nM	70.4 nM		3920 nM	
C=C(C)c1ccc(C2CC3CCC(C2C(=O)OC)N3C)cc1 (stereo not shown) [RTI-4229-283]						14.3 nM	3.13 nM		3130 nM	
CCc1ccc(C2CC3CCC(C2C(=O)OC)N3C)cc1 (stereo not shown) [RTI-4229-287]						325 nM			17800 nM	1690 nM
CCc1ccc(C2CC3CCC(C2C(=O)OC)N3C)cc1I (stereo not shown) [RTI-4229-295]						21.3 nM			1350 nM	2.96 nM
C/C=C/c1ccc(C2CC3CCC(C2C(=O)OC)N3C)cc1 (stereo not shown) [RTI-4229-296]						5.29 nM	11.4 nM		1590 nM	
